The subject of test [1] is M. smithii strains DSMZ 861 (PS), 2374 (F1), 2375 (ALI) and 11975 (B181). In words: Statin susceptibility of M. smithii strains in the PHAT system, 96-well plates, growth by optical density at 600 nm (all four strains). In kind it is cell-based, Methanobrevibacter smithii. As to conditions: preliminary results. How it is done: A system for culturing M. smithii in 96-well plate format was designed and constructed in the following manner (See FIG. 15). Three stainless steel paint canisters (Binks, 83S-210, 2 gallon size) were modified for incubation of plates at 37° C. in an oxygen-free gas mix of 20% CO2/80% H2 at a pressure of 30 psi, where all of these growth parameters can be monitored and recorded.
The canisters are heated using Electro-Flex Heat brand Pail Heaters controlled by a custom designed controller consisting of a 16A2120 temperature/process control (Love Controls), an RTD (resistance temperature detector) probe to measure internal tank temperature, and several safety features to prevent overheating or burns.
The system is pressurized with oxygen-free gas that has flowed through a custom-built oxygen scrub. Commercially available gas mixes used for culturing M. smithii contain trace levels of oxygen that would kill the organism: thus, the gas mixture must be passed through an oxygen scrub. This scrub consists of a glass tube filled with copper mesh that is heated to 350° C. with heating tape (HTS/Amptek Duo-Tape), controlled by a benchtop power controller (HTS/Amptek BT-Z). The oxygen scrub is covered with insulating tape and secured behind a heat resistant polyetherimide case. Pressure in each tank is measured and recorded with a digital manometer (LEO record, Omni Instruments).
The system is housed inside an anaerobic chamber (COY laboratories) to allow inspection and manipulation of cultures and plates without exposing M. smithii to oxygen. Each tank can house 30 standard volume 96-well plates, which can be analyzed inside the COY anaerobic chamber with a microplate reader (BioRad) that monitors growth by measuring optical density.
1.5 μl of the stock solutions were added to wells in 96-well plates and transferred to the COY anaerobic chamber where they were kept for at least 24 hours to become anaerobic. 150 microliters of actively growing Methanobrevibacter smithii cultures were then added to each well (excluding medium+drug blanks) to bring the drug concentrations to 1 mM, 100 μM and 10 μM, respectively. The plates were incubated in the newly developed pressurized heated anaerobic tank system in a 4:1 mixture of oxygen-scrubbed H2 and CO2 at a pressure of 30 psi. Cultures grown in 1% ethanol, methanol and DMSO were used as controls. Growth was measured by determining optical density at 600 nm using the BioRad microplate reader (model 680).
Each condition was tested in triplicate with the average measurement plotted.

Test [2] concerns Bacteroides thetaiotaomicron. In words: Effect of statins on growth of B. thetaiotaomicron (FIG. 14). The format is cell-based. As to conditions: statin concentration of 1 mM (FIG. 14).

For `CC(C)c1nc(N(C)S(C)(=O)=O)nc(-c2ccc(F)cc2)c1/C=C/[C@@H](O)C[C@@H](O)CC(=O)O` [rosuvastatin], the “inhibition of growth of M. smithii strains” value in test [1] (1 millimolar) is “inhibit all strains tested”; in test [1] (100 micromolar) it was “inhibit all strains”. Besides, in test [2], the “effect on the growth of Bacteroides thetaiotaomicron” value is “None of these three statins had any affect on the growth”.
For `CC(C)c1c(C(=O)Nc2ccccc2)c(-c2ccccc2)c(-c2ccc(F)cc2)n1CC[C@@H](O)C[C@@H](O)CC(=O)O` [atorvastatin] the same measures were “inhibit all strains tested”, “inhibit all strains” and “None of these three statins had any affect on the growth”.

For the origin of these results see patent US20130217592A1, “ARRAYS AND METHODS COMPRISING M. SMITHII GENE PRODUCTS” (THE WASHINGTON UNIVERSITY, priority 2007, published 2013).
